Assays:
Assay type in all cases: in vivo
[1] = tested on: Chenopodium album; assay: Test Example 5: herbicidal effect by foliage application, plastic box (symbol O); settings: 320 g/ha, 3 weeks after application
In short: (§1)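 After sowing into sterilized diluvial soil and growing two weeks under glass at 25° C. to 30° C., seedlings receive a uniform foliar spray of diluted emulsion. Damage is judged visually three weeks on.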

[2] = tested on: Digitaria ciliaris; assay: Test Example 5: herbicidal effect by foliage application, plastic box (symbol F); settings: 320 g/ha, 3 weeks after application
In short: as §1

[3] = tested on: soybean; assay: Test Example 4: effect on crop by soil treatment (symbol d); settings: application herbicide amount 320 g/ha
In short: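 Greenhouse culture at 25° C. to 30° C. followed sowing of seed in spots on sterilized diluvial soil with a soil cover close to 1.5 cm thick.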

[4] = tested on: Galium spurium; assay: Test Example 5: herbicidal effect by foliage application, plastic box (symbol Q); settings: 320 g/ha, 3 weeks after application
In short: as §1

[5] = tested on: Setaria viridis; assay: Test Example 4: herbicidal effect by soil treatment (symbol G); settings: application herbicide amount 320 g/ha
In short: (§2)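 Seeds were sown in sterilized diluvial soil, covered with about 1.5 cm of soil, and the soil surface was sprayed with a water-diluted emulsion of the compound at a predetermined rate. Plants grew in a greenhouse at 25° C. to 30° C.; effects were scored visually 3 weeks after application.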

[6] = tested on: Abutilon theophrasti; assay: Test Example 5: herbicidal effect by foliage application, plastic box (symbol M); settings: 320 g/ha, 3 weeks after application
In short: as §1

[7] = tested on: Scirpus juncoides; assay: Test Example 1: herbicidal activity, application before weed generation in submerged conditions (symbol B); settings: application herbicide amount 320 g/ha
In short: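 0–5 visual score, 3 wk post-application. Submerged pots, alluvial soil, water 4 cm; seeds sown mixed, rice at 2.5 leaves transplanted. Emulsion diluted to predetermined dose, applied to water surface at sowing. 25–30 °C greenhouse.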

[8] = tested on: Avena fatua; assay: Test Example 4: herbicidal effect by soil treatment (symbol I); settings: application herbicide amount 320 g/ha
In short: as §2

[9] = tested on: beet; assay: Test Example 5: effect on crop by foliage application, plastic box (symbol f); settings: 320 g/ha, 3 weeks after application
In short: (§3)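 Soil: sterilized diluvial. Container: plastic box, 21 × 13 cm, 7 cm deep. Sowing: spot-like, ~1.5 cm cover. Growth: greenhouse, 25° C. to 30° C.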

[10] = tested on: Apera spica-venti; assay: Test Example 5: herbicidal effect by foliage application, plastic box (symbol L); settings: 320 g/ha, 3 weeks after application
In short: as §1

[11] = tested on: Echinochloa crus-galli var. crus-galli; assay: Test Example 5: herbicidal effect by foliage application, plastic box (symbol H); settings: 320 g/ha, 3 weeks after application
In short: as §1

[12] = tested on: Amaranthus retroflexus; assay: Test Example 4: herbicidal effect by soil treatment (symbol N); settings: application herbicide amount 320 g/ha
In short: as §2

[13] = tested on: Veronica persica; assay: Test Example 5: herbicidal effect by foliage application, plastic box (symbol R); settings: 320 g/ha, 3 weeks after application
In short: as §1

[14] = tested on: rapeseed; assay: Test Example 5: effect on crop by foliage application, plastic box (symbol g); settings: 320 g/ha, 3 weeks after application
In short: as §3

[15] = tested on: Apera spica-venti; assay: Test Example 4: herbicidal effect by soil treatment (symbol L); settings: application herbicide amount 320 g/ha
In short: as §2

[16] = tested on: Galium spurium; assay: Test Example 4: herbicidal effect by soil treatment (symbol Q); settings: application herbicide amount 320 g/ha
In short: as §2

[17] = tested on: Stellaria media; assay: Test Example 5: herbicidal effect by foliage application, plastic box (symbol P); settings: 320 g/ha, 3 weeks after application
In short: as §1

[18] = tested on: Leptochloa chinensis; assay: Test Example 3: herbicidal effect by foliage application, Wagner pot (symbol D); settings: application herbicide amount 320 g/ha
In short: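 Herbicidal activity was rated three weeks after a foliar spray of diluted emulsion concentrate, applied at a predetermined dose to plants grown for 14 days from seed in waterlogged alluvial soil within a 25–30 °C greenhouse.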

[19] = tested on: Avena fatua; assay: Test Example 5: herbicidal effect by foliage application, plastic box (symbol I); settings: 320 g/ha, 3 weeks after application
In short: as §1

Structure (SMILES) | O: Chenopodium album, herbicidal effect (criteria of Test Example 1) [1] | F: Digitaria ciliaris, herbicidal effect (criteria of Test Example 1) [2] | Effect on crop grade, d: soybean [3] | Q: Galium spurium, herbicidal effect (criteria of Test Example 1) [4] | Herbicidal effect grade, G: Setaria viridis [5] | M: Abutilon theophrasti, herbicidal effect (criteria of Test Example 1) [6] | Herbicidal effect grade, B: Scirpus juncoides [7] | Herbicidal effect grade, I: Avena fatua [8] | f: beet, effect on crop (criteria of Test Example 1) [9] | L: Apera spica-venti, herbicidal effect (criteria of Test Example 1) [10] | H: Echinochloa crus-galli var. crus-galli, herbicidal effect (criteria of Test Example 1) [11] | Herbicidal effect grade, N: Amaranthus retroflexus [12] | R: Veronica persica, herbicidal effect (criteria of Test Example 1) [13] | g: rapeseed, effect on crop (criteria of Test Example 1) [14] | Herbicidal effect grade, L: Apera spica-venti [15] | Herbicidal effect grade, Q: Galium spurium [16] | P: Stellaria media, herbicidal effect (criteria of Test Example 1) [17] | herbicidal effect on D (Leptochloa chinensis), grade 0-5 [18] | I: Avena fatua, herbicidal effect (criteria of Test Example 1) [19] | d: soybean, effect on crop grade [3] | other results
CCc1cc(Br)cc(C)c1C1=C(O)CC(CC(C)=O)C1=O (stereo not shown) [7-003] | 0 (Herbicidal ratio of 5% or lower (almost no effect)) | 5 (Herbicidal ratio of 90% or more (almost completely withered)) | 0 (Herbicidal ratio of 5% or lower (almost no effect)) | 0 (Herbicidal ratio of 5% or lower (almost no effect)) | 5 (Herbicidal ratio of 90% or more (almost completely withered)) | 0 (Herbicidal ratio of 5% or lower (almost no effect)) | 0 (Herbicidal ratio of 5% or lower (almost no effect)) | 4 (Herbicidal ratio of 70% or higher and lower than 90%) | 0 (Herbicidal ratio of 5% or lower (almost no effect)) | 5 (Herbicidal ratio of 90% or more (almost completely withered)) | 5 (Herbicidal ratio of 90% or more (almost completely withered)) | 0 (Herbicidal ratio of 5% or lower (almost no effect)) | 0 (Herbicidal ratio of 5% or lower (almost no effect)) | 0 (Herbicidal ratio of 5% or lower (almost no effect)) | 5 (Herbicidal ratio of 90% or more (almost completely withered)) | 0 (Herbicidal ratio of 5% or lower (almost no effect)) | 0 (Herbicidal ratio of 5% or lower (almost no effect)) | 5 (Herbicidal ratio of 90% or more (almost completely withered)) | 5 (Herbicidal ratio of 90% or more (almost completely withered)) | – | –
CC(=O)CC1CC(O)=C(c2c(C)cc(Br)cc2C)C1=O (stereo not shown) [7-002] | 0 (Herbicidal ratio of 5% or lower (almost no effect)) | 5 (Herbicidal ratio of 90% or more (almost completely withered)) | 0 (Herbicidal ratio of 5% or lower (almost no effect)) | 0 (Herbicidal ratio of 5% or lower (almost no effect)) | 4 (Herbicidal ratio of 70% or higher and lower than 90%) | 0 (Herbicidal ratio of 5% or lower (almost no effect)) | 0 (Herbicidal ratio of 5% or lower (almost no effect)) | 0 (Herbicidal ratio of 5% or lower (almost no effect)) | 0 (Herbicidal ratio of 5% or lower (almost no effect)) | 3 (Herbicidal ratio of 40% or higher and lower than 70%) | 5 (Herbicidal ratio of 90% or more (almost completely withered)) | 0 (Herbicidal ratio of 5% or lower (almost no effect)) | 0 (Herbicidal ratio of 5% or lower (almost no effect)) | 0 (Herbicidal ratio of 5% or lower (almost no effect)) | 5 (Herbicidal ratio of 90% or more (almost completely withered)) | 0 (Herbicidal ratio of 5% or lower (almost no effect)) | 0 (Herbicidal ratio of 5% or lower (almost no effect)) | 5 (Herbicidal ratio of 90% or more (almost completely withered)) | 4 (Herbicidal ratio of 70% or higher and lower than 90%) | – | –
CON=C(C)CC1CC(O)=C(c2c(C)cc(-n3cncn3)cc2C)C1=O (stereo not shown) [6-074] | 0 (Herbicidal ratio of 5% or lower (almost no effect)) | 0 (Herbicidal ratio of 5% or lower (almost no effect)) | – | 0 (Herbicidal ratio of 5% or lower (almost no effect)) | – | 0 (Herbicidal ratio of 5% or lower (almost no effect)) | 0 (Herbicidal ratio of 5% or lower (almost no effect)) | – | 0 (Herbicidal ratio of 5% or lower (almost no effect)) | 0 (Herbicidal ratio of 5% or lower (almost no effect)) | 3 (Herbicidal ratio of 40% or higher and lower than 70%) | – | 0 (Herbicidal ratio of 5% or lower (almost no effect)) | 0 (Herbicidal ratio of 5% or lower (almost no effect)) | – | – | 0 (Herbicidal ratio of 5% or lower (almost no effect)) | 5 (Herbicidal ratio of 90% or more (almost completely withered)) | 1 (Herbicidal ratio of 5% or higher and lower than 20%) | 0 (Herbicidal ratio of 5% or lower (almost no effect)) | G: Setaria viridis, herbicidal effect grade [5]: 2 (Herbicidal ratio of 20% or higher and lower than 40%); I: Avena fatua, herbicidal effect grade [8]: 0 (Herbicidal ratio of 5% or lower (almost no effect)); N: Amaranthus retroflexus, herbicidal effect grade [12]: 0 (Herbicidal ratio of 5% or lower (almost no effect)); L: Apera spica-venti, herbicidal effect grade [15]: 0 (Herbicidal ratio of 5% or lower (almost no effect)); Q: Galium spurium, herbicidal effect grade [16]: 0 (Herbicidal ratio of 5% or lower (almost no effect))
CON=C(C)CC1CC(O)=C(c2c(C)cc(-c3ccc(Cl)cc3)cc2OC)C1=O (stereo not shown) [6-077, 2-(4′-chloro-3-methoxy-5-methyl-[1,1′-biphenyl]-4-yl)-3-hydroxy-5-{2-(methoxyimino)propyl}cyclopent-2-enone] | 4 (Herbicidal ratio of 70% or higher and lower than 90%) | 5 (Herbicidal ratio of 90% or more (almost completely withered)) | – | 4 (Herbicidal ratio of 70% or higher and lower than 90%) | – | 5 (Herbicidal ratio of 90% or more (almost completely withered)) | 3 (Herbicidal ratio of 40% or higher and lower than 70%) | – | 4 (Herbicidal ratio of 70% or higher and lower than 90%) | 5 (Herbicidal ratio of 90% or more (almost completely withered)) | 5 (Herbicidal ratio of 90% or more (almost completely withered)) | – | 4 (Herbicidal ratio of 70% or higher and lower than 90%) | 5 (Herbicidal ratio of 90% or more (almost completely withered)) | – | – | 4 (Herbicidal ratio of 70% or higher and lower than 90%) | 5 (Herbicidal ratio of 90% or more (almost completely withered)) | 5 (Herbicidal ratio of 90% or more (almost completely withered)) | 0 (Herbicidal ratio of 5% or lower (almost no effect)) | G: Setaria viridis, herbicidal effect grade [5]: 5 (Herbicidal ratio of 90% or more (almost completely withered)); I: Avena fatua, herbicidal effect grade [8]: 4 (Herbicidal ratio of 70% or higher and lower than 90%); N: Amaranthus retroflexus, herbicidal effect grade [12]: 5 (Herbicidal ratio of 90% or more (almost completely withered)); L: Apera spica-venti, herbicidal effect grade [15]: 5 (Herbicidal ratio of 90% or more (almost completely withered)); Q: Galium spurium, herbicidal effect grade [16]: 4 (Herbicidal ratio of 70% or higher and lower than 90%)

Source: patent publication US11000033B2, “Ketone or oxime compound, and herbicide” (NISSAN CHEMICAL CORPORATION, priority 2014, dated 2021)
